Test results: patent publication US20100222349A1, “QUINOLINE DERIVATIVES USED TO TREAT INFLAMMATORY AND ALLERGIC DISEASES” (Glaxo Group Limited, priority 2007, published 2010)

Experiments:
human H1 receptor = target: T1, human H1 receptor (Homo sapiens, UniProt P35367); test: Histamine H1 functional antagonist assay: determination of functional pKi values (FLIPR); type: cell-based; conditions: CHO cells expressing human H1 receptor, histamine at EC80, read-out: average pKi (pKb) at H1 (converted)
T1 construct: expressed in transfected cells
Protocol: The human H1 receptor is cloned using known procedures described in the literature [Biochem. Biophys. Res. Commun., 201(2):894 (1994)]. Chinese hamster ovary (CHO) cells stably expressing the human H1 receptor are generated according to known procedures described in the literature [Br. J. Pharmacol., 117(6):1071 (1996)]. The histamine H1 cell line is seeded into non-coated black-walled clear bottom 384-well tissue culture plates in alpha minimum essential medium (Gibco/Invitrogen, cat no. 22561-021), supplemented with 10′)/0 dialysed foetal calf serum (Gibco/Invitrogen cat no. 12480-021) and 2 mM L-glutamine (Gibco/Invitrogen cat no 25030-024) and is maintained overnight at 5% CO2, 37° C. Excess medium is removed from each well to leave 10 μl. 30 μl loading dye (250 μM Brilliant Black, 2 μM Fluo-4 diluted in Tyrodes buffer+probenecid (145 mM NaCl, 2.5 mM KCl, 10 mM HEPES, 10 mM D-glucose, 1.2 mM MgCl2, 1.5 mM CaCl2, 2.5 mM probenecid, pH adjusted to 7.40 with NaOH 1.0 M)) is added to each well and the plates are incubated for 60 min at 5% CO2, 37° C. 10 μl of test compound, diluted to the required concentration in Tyrodes buffer+probenecid (or 10 μl Tyrodes buffer+probenecid as a control) is added to each well and the plate is incubated for 30 min at 37° C., 5% CO2. The plates are then placed into a FLIPR™(Molecular Devices, UK) to monitor cell fluorescence (λex=488 nm, λEM=540 nm) in the manner described in Sullivan et al., (In: Lambert DG (ed.), Calcium Signaling Protocols, New Jersey: Humana Press, 1999, 125-136) before and after the addition of 10 μl histamine at a concentration that results in the final assay concentration of histamine being EC80. Functional antagonism is indicated by a suppression of histamine induced increase in fluorescence, as measured by the FLIPR™ system (Molecular Devices). By means of concentration effect curves, functional affinities are determined using standard pharmacological mathematical analysis.

histamine H3 receptor = target: T2, histamine H3 receptor (Homo sapiens, UniProt Q9Y5N1); test: Histamine H3 functional antagonist assay (GTPγS, membranes); type: biochemical; conditions: CHO K1 membranes, [35S]-GTPγS, histamine at EC80; read-out: average pKi (pKb) at H3 (converted)
T2 construct: expressed in transfected cells; host or cells: CHO K1 cells with pSwitch/pGeneH3 (GeneSwitch, mifepristone-induced), clone 3H3; membrane preparation
Protocol: The histamine H3 cDNA is isolated from its holding vector, pcDNA3.1 TOPO (InVitrogen), by restriction digestion of plasmid DNA with the enzymes BamH1 and Not-1 and is ligated into the inducible expression vector pGene (InVitrogen) digested with the same enzymes. The GeneSwitchTM system (a system where in transgene expression is switched off in the absence of an inducer and switched on in the presence of an inducer) is performed as described in U.S. Pat. Nos. 5,364,791; 5,874,534; and 5,935,934. Ligated DNA is transformed into competent DH5α E. coli host bacterial cells and is plated onto Luria Broth (LB) agar containing ZeocinTM (an antibiotic which allows the selection of cells expressing the sh ble gene which is present on pGene and pSwitch) at 50 μgml^-1. Colonies containing the re-ligated plasmid are identified by restriction analysis. DNA for transfection into mammalian cells is prepared from 250 ml cultures of the host bacterium containing the […]3 plasmid and is isolated using a DNA preparation kit (Qiagen Midi-Prep) as per manufacturers guidelines (Qiagen). CHO K1 cells previously transfected with the pSwitch regulatory plasmid (InVitrogen) are seeded at 2×10^6 cells per T75 flask in Complete Medium, containing Hams F12 (GIBCOBRL, Life Technologies) medium supplemented with 10% v/v dialysed foetal bovine serum, L-glutamine, and hygromycin (100 μgml^-1), 24 h prior to use. Plasmid DNA is transfected into the cells using Lipofectamine plus according to the manufacturer's guidelines (InVitrogen). 48 h post transfection, cells are placed into complete medium supplemented with 500 μgml^-1 ZeocinTM. 10-14 days post selection, 10 nM Mifepristone (InVitrogen) is added to the culture medium to induce the expression of the receptor. 18 h post induction, cells are detached from the flask using ethylenediamine tetra-acetic acid (EDTA; 1:5000; InVitrogen), following several washes with PBS, pH 7.4 and are resuspended in Sorting Medium containing Minimum Essential Medium (MEM), without phenol red, and are supplemented with Earles salts and 3% Foetal Clone II (Hyclone). Approximately 1×10^7 cells are examined for receptor expression by staining with a rabbit polyclonal antibody, 4a, raised against the N-terminal domain of the histamine H3 receptor, are incubated on ice for 60 min, followed by two washes in sorting medium. Receptor bound antibody is detected by incubation of the cells for 60 min on ice with a goat anti rabbit antibody, conjugated with Alexa 488 fluorescence marker (Molecular Probes). Following two further washes with Sorting Medium, cells are filtered through a 50 μm FilconTM (BD Biosciences) and then are analysed on a FACS Vantage SE Flow Cytometer fitted with an Automatic Cell Deposition Unit. Control cells are non-induced cells treated in an analogous manner. Positively stained cells are sorted as single cells into 96-well plates, containing Complete Medium containing 500 μgml^-1 ZeocinTM and are allowed to expand before reanalysis for receptor expression via antibody and ligand binding studies. One clone, 3H3, is selected for membrane preparation. All steps of the protocol are carried out at 4° C. and with pre-cooled reagents. The cell pellet is resuspended in 10 volumes of homogenisation buffer (50 mM N-2-hydroxyethylpiperazine-N'-2-ethanesulfonic acid (HEPES), 1 mM ethylenediamine tetra-acetic acid (EDTA), pH 7.4 with KOH, supplemented with 10^-6 M leupeptin (acetyl-leucyl-leucyl-arginal; Sigma L2884), 25 μgml^-1 bacitracin (Sigma B0125), 1 mM phenylmethylsulfonyl fluoride (PMSF) and 2×10^-6 M pepstain A (Sigma)). The cells are then homogenised by 2×15 sec bursts in a 1 L glass Waring blender, followed by centrifugation at 500 g for 20 min. The supernatant is then spun at 48,000 g for 30 min. The pellet is resuspended in homogenisation buffer (4× the volume of the original cell pellet) by vortexing for 5 sec, followed by homogenisation in a Dounce homogeniser (10-15 strokes). […]

T2 sequence (Q9Y5N1 whole entry, species assumed): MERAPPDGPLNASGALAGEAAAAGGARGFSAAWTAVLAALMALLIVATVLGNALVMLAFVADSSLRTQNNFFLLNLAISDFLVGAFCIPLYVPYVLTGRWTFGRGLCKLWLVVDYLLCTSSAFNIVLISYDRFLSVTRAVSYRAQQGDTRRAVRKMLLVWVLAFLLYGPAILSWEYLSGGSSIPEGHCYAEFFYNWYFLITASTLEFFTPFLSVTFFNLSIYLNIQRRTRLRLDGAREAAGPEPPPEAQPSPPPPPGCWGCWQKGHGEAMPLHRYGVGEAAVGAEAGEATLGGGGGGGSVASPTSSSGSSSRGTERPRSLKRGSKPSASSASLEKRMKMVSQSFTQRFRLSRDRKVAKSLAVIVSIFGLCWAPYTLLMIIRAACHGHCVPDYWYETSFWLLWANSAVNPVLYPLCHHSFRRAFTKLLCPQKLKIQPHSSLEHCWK
T1 sequence (P35367 whole entry): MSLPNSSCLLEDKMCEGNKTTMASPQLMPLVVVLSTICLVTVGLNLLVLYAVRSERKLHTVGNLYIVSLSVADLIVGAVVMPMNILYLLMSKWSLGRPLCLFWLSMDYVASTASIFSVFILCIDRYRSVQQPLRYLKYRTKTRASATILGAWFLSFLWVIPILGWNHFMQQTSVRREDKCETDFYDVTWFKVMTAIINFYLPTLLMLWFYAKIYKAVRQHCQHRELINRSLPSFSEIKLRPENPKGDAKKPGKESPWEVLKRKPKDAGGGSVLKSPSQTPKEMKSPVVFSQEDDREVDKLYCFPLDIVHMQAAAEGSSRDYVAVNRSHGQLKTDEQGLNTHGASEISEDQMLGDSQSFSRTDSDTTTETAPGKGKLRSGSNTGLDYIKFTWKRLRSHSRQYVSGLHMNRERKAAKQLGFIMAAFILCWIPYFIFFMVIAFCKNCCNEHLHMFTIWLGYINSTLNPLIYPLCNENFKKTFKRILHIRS

Row | Ki (human H1 receptor) [nM] | Ki (histamine H3 receptor) [nM] | Structure (SMILES)
1 | < 10 | > 316 | CCCCc1cc(OC2CCN(CCC(=O)N(CC)CC)CC2)c2ncccc2c1 [Example 7, 3-{4-[(6-Butyl-8-quinolinyl)oxy]-1-piperidinyl}-N,N-diethylpropanamide]
2 | < 100 | > 316 | CCCCCCc1cc(OC2CCN(C[C@H]3CC[C@H](C(=O)NCc4ccc(C)cc4)CC3)CC2)c2ncccc2c1 [Example 49, trans-4-({4-[(6-hexyl-8-quinolinyl)oxy]-1-piperidinyl}methyl)-N-[(4-methylphenyl)methyl]cyclohexane carboxamide]
3 | < 10 | > 316 | CCCCc1cc(OC2CCN(CCCCNC(=O)C(C)(C)C)CC2)c2ncccc2c1 [Example 67, N-(4-{4-[(6-butyl-8-quinolinyl)oxy]-1-piperidinyl}butyl)-2,2-dimethyl propanamide]
4 | < 100 | > 3160 | CCCCc1cc(OC2CCN(CCCCC(=O)NC(C)(C)C)CC2)c2ncccc2c1 [Example 30, 5-{4-[(6-butyl-8-quinolinyl)oxy]-1-piperidinyl}-N-(1,1-dimethylethyl) pentanamide]
5 | < 10 | > 316 | CCCCc1cc(OC2CCN(CCCc3nc(CCC)no3)CC2)c2ncccc2c1 [Example 87, 6-Butyl-8-({1-[3-(3-propyl-1,2,4-oxadiazol-5-yl)propyl]-4-piperidinyl}oxy)quinoline]
6 | < 10 | > 316 | CCCCc1cc(OC2CCN(CCC(=O)N3CCCCC3)CC2)c2ncccc2c1 [Example 18, 6-butyl-8-({1-[3-oxo-3-(1-piperidinyl)propyl]-4-piperidinyl}oxy) quinoline]
7 | < 10 | > 316 | CCCCc1cc(OC2CCN(CCCCNC(=O)CCCOC)CC2)c2ncccc2c1 [Example 84, N-(4-{4-[(6-butyl-8-quinolinyl)oxy]-1-piperidinyl}butyl)-4-(methyloxy) butanamide]
8 | < 100 | > 316 | CCCCCCc1cc(OC2CCN(C[C@H]3CC[C@H](C(=O)Nc4ccc(C)cc4)CC3)CC2)c2ncccc2c1 [Example 48, trans-4-({4-[(6-hexyl-8-quinolinyl)oxy]-1-piperidinyl}methyl)-N-(4-methylphenyl) cyclohexane carboxamide]
9 | < 100 | > 316 | CCCCCCc1cc(OC2CCN(C[C@H]3CC[C@H](C(=O)NCC(C)(C)C)CC3)CC2)c2ncccc2c1 [Example 52, trans-N-(2,2-dimethylpropyl)-4-({4-[(6-hexyl-8-quinolinyl)oxy]-1-piperidinyl}methyl)cyclohexane carboxamide]
10 | < 100 | > 316 | CCCCc1cc(OC2CCN(CCC3CCN(C(=O)CC)CC3)CC2)c2ncccc2c1 [Example 4, 6-Butyl-8-({1-[2-(1-propanoyl-4-piperidinyl)ethyl]-4-piperidinyl}oxy)quinoline]
11 | < 10 | > 316 | CCCCc1cc(OC2CCN(CCCCCNC(=O)C(C)(C)C)CC2)c2ncccc2c1 [Example 76, N-(5-{4-[(6-butyl-8-quinolinyl)oxy]-1-piperidinyl}pentyl)-2,2-dimethyl propanamide]
12 | < 100 | > 3160 | CCCCc1cc(OC2CCN(CC(=O)NC(C)(C)C)CC2)c2ncccc2c1 [Example 12, 2-{4-[(6-butyl-8-quinolinyl)oxy]-1-piperidinyl}-N-(1,1-dimethylethyl) acetamide]
13 | < 10 | > 316 | CCCCc1cc(OC2CCN(CCNC(=O)CCC)CC2)c2ncccc2c1 [Example 74, N-(2-{4-[(6-butyl-8-quinolinyl)oxy]-1-piperidinyl}ethyl) butanamide]
14 | < 100 | > 316 | CCCCc1cc(OC2CCN(C[C@H]3CC[C@H](C(=O)NCc4ccc(C)cc4)CC3)CC2)c2ncccc2c1 [Example 60, trans-4-({4-[(6-butyl-8-quinolinyl)oxy]-1-piperidinyl}methyl)-N-[(4-methylphenyl)methyl]cyclohexane carboxamide]
15 | < 10 | > 316 | CCCCCCc1cc(OC2CCN(C[C@H]3CC[C@H](C(=O)NC(C)C)CC3)CC2)c2ncccc2c1 [Example 56, trans-4-({4-[(6-hexyl-8-quinolinyl)oxy]-1-piperidinyl}methyl)-N-(1-methylethyl) cyclohexane carboxamide]
16 | < 10 | > 316 | CCCCc1cc(OC2CCN(C[C@H]3CC[C@H](C(=O)N4CCCC4)CC3)CC2)c2ncccc2c1 [Example 62, 6-butyl-8-[(1-{[trans-4-(1-pyrrolidinylcarbonyl)cyclohexyl]methyl}-4-piperidinyl)oxy]quinoline]
17 | < 10 | > 316 | CCCCc1cc(OC2CCN(CCCNC(=O)CCC)CC2)c2ncccc2c1 [Example 70, N-(3-{4-[(6-butyl-8-quinolinyl)oxy]-1-piperidinyl}propyl) butanamide]
18 | < 10 | > 3160 | CCCCc1cc(OC2CCN(CCC(=O)NC(C)C)CC2)c2ncccc2c1 [Example 19, 3-{4-[(6-butyl-8-quinolinyl)oxy]-1-piperidinyl}-N-(1-methylethyl) propanamide]
19 | < 100 | > 3160 | CCCCc1cc(OC2CCN(CCCCC(=O)NCCOC)CC2)c2ncccc2c1 [Example 29, 5-{4-[(6-butyl-8-quinolinyl)oxy]-1-piperidinyl}-N-[2-(methyloxy)ethyl] pentanamide]
20 | < 100 | > 3160 | CCCCc1cc(OC2CCN(CC(=O)N(CC)CC)CC2)c2ncccc2c1 [Example 9, 2-{4-[(6-butyl-8-quinolinyl)oxy]-1-piperidinyl}-N,N-diethylacetamide]
21 | < 10 | > 316 | CCCCc1cc(OC2CCN(CC3CCCNC3=O)CC2)c2ncccc2c1 (stereo not drawn) [Example 5, 3-({4-[(6-butyl-8-quinolinyl)oxy]-1-piperidinyl}methyl)-2-piperidinone]
